Experimental data published in paper PMC10257182, “Discovery of senolytics using machine learning” (Nature Communications, 2023).
Where “and” joins values, the source holds several entries; their conditions need not be identical. Equal entries are not always repeated.

Legend:
Type in all cases: cell-based, human
[1] = test system: IMR90 cells at passage 13 (control); details: for Mean (cell survival, Tukey test details): FIG 4C, Young (control) cells, mean of n=12 as fraction of Young DMSO = 1
Source text: IMR90 (CCL-186) human foetal lung fibroblasts and A549 (CCL-185) human lung adenocarcinoma cells were obtained from the American Type Culture Collection (ATCC, Manassas, VA). The cell lines were confirmed to be mycoplasma negative (Lonza MycoAlert, cat #LT07-118). IMR90 ER:RAS is a derivative of IMR90 cells expressing a switchable version of oncogenic H-Ras[84]. IMR90 ER:RAS and A549 cells were maintained in Dulbecco’s Modified Eagle Medium (DMEM, ThermoFisher) supplemented with foetal bovine serum (10%), L-glutamine (2 mM, ThermoFisher), and antibiotic-antimycotic solution (1%, ThermoFisher) and incubated under standard tissue culture conditions (37 °C and 5% CO2). For induction of the senescent phenotype, IMR90-ER:RAS cells were cultured in hydroxytamoxifen (4-OHT) (Sigma) added media at 100 nM final concentration. IMR90 were kept in culture for over 27 passages for replicative senescence. Cells were tested for mycoplasma on a regular basis.
Equal numbers of control and senescent cells were plated at high density on multiwell plates just before senolytic treatment addition. After treatment, cells were fixed on 0.5% glutaraldehyde (Sigma) and then dried at RT overnight. Then, wells were stained with crystal violet solution for 3 h, washed and dried. Once they were completely dry, the plates were scanned for records. Quantification was performed extracting the staining with 1% acetic acid and measuring the final solution by absorbance at 595 nm.

[2] = test system: Na+/K+ ATPase pump (intracellular K+) in senescent IMR90 ER:RAS cells; assay: Intracellular K+ determination with Asante staining, OIS; details: for Asante Mean intensity / Mean (Asante Mean intensity, Tukey test details): FIG 4E, ER:RAS cells; for Asante Mean intensity: individual replicate values; for Mean (Asante Mean intensity, Tukey test details): mean of n=7
Description: Cells were cultured for control and senescent phenotype and then treated with the senolytics oleandrin, ouabain and periplocin at 10 nM for 72 h. Asante (Asante Potassium Green-2 AM, abcam ab142806) was added to the culture 30 min before fixation, following manufacturer instructions. DAPI staining was done before image acquisition on Nikon TI2 microscope (20x). Image analysis was performed using ImageJ 1.53k for setting intensity threshold and measuring mean intensity.

[3] = test system: p16 and p21 mRNA in IMR90 ER:RAS cells; assay: p16 and p21 mRNA expression by RT-qPCR, OIS
Description: (§1) Total RNA was isolated using RNAeasy kit (Quiagen). cDNA was generated with reverse transcriptase iScript (Bio-Rad). RT-qPCR was performed using SYBR Select Master Mix (Applied Biosystems) in OneStepPlus detection system (Applied Biosystems). Oligos for amplification were: NOXA Fw-[…] and Rv-[…]; b-ACTIN Fw-[…] and Rv-[…]; IL1a Fw-[…] and Rv- […]; IL1b Fw-[…] and Rv- […]; IL8 Fw-[…] and Rv-[…]; p16 Fw-CGGTCGGAGGCCGATCCAG and Rv- […]; p21Fw-[…] and Rv- […].

[4] = test system: p16 and p21 mRNA in IMR90 cells at passage 27; assay: p16 and p21 mRNA expression by RT-qPCR, replicative senescence
Description: as §1

[5] = test system: IL1α, IL1β and IL8 mRNA in IMR90 ER:RAS cells; assay: IL1α, IL1β and IL8 mRNA expression by RT-qPCR, OIS
Description: as §1

[6] = test system: IL1α, IL1β and IL8 mRNA in IMR90 cells at passage 27; assay: IL1α, IL1β and IL8 mRNA expression by RT-qPCR, replicative senescence; details: Replicative senescence cells treated with Oleandrin; relative to Replicative senescence DMSO = 1; individual replicates (Sup Fig 9M)
Description: as §1

control A549 cells = assay: Cell survival assay using crystal violet staining, TIS, control cells; details: fraction of Control DMSO = 1, n 15
[7] = ER:RAS cells, ER:RAS DMSO = 1, single replicates (SUP FIG 9J)
[8] = Replicative senescence, Replicative senescence DMSO = 1, single replicates (SUP FIG 9K)
[9] = ER:RAS cells treated with Oleandrin, relative to ER:RAS DMSO = 1, individual replicates (Sup Fig 9L)

| SMILES | Mean (cell survival, Tukey test details) [1] | cellular density in non-senescent control cultures, in words ([1]; IMR90 control, 10 nM, 72 h) | Asante Mean intensity [2] | Mean (Asante Mean intensity, Tukey test details) [2] | K+ intracellular concentration, in words ([2]; OIS IMR90, 10 nM, 72 h) | p16 mRNA expression [3, 7] | p21 mRNA expression [3, 7] | mRNA expression of the senescence markers p16 and p21 in surviving cells, in words ([3]; OIS, 10 nM, three days) | p16 mRNA expression [4, 8] | p21 mRNA expression [4, 8] | mRNA expression of the senescence markers p16 and p21 in surviving cells, in words ([4]; replicative senescence, 10 nM, three days) | Il1a mRNA expression [5, 9] | Il1b mRNA expression [5, 9] | Il8 mRNA expression [5, 9] | expression of proinflammatory cytokines IL1α, IL1β and IL8 mRNA in surviving cells, in words ([5]; OIS, 10 nM, three days) | Il1a mRNA expression [6] | Il1b mRNA expression [6] | Il8 mRNA expression [6] | Cell survival, mean (Test details, Mean 2) (control A549 cells) |
| --- | --- | --- | --- | --- | --- | --- | --- | --- | --- | --- | --- | --- | --- | --- | --- | --- | --- | --- | --- |
| CO[C@H]1C[C@H](O[C@H]2CC[C@@]3(C)[C@H](CC[C@@H]4[C@@H]3CC[C@]3(C)[C@@H](C5=CC(=O)OC5)[C@@H](OC(C)=O)C[C@]43O)C2)O[C@@H](C)[C@@H]1O [Oleandrin, oleandrin] | 0.8637 | unchanged | 67.9 and 72 and 68.8 and 66.6 and 77 and 61.9 | 68.87 | significantly reduced | 0.68 and 0.69 and 0.24 and 0.46 | 0.34 and 0.51 and 0.72 and 0.48 | reduced | 0.71 and 0.46 and 0.42 | 0.65 and 0.25 and 0.44 | reduced | 0.753 and 0.593 and 0.059 and 0.346 | 0.833 and 0.618 and 0.476 and 0.758 and 0.763 and 0.829 | 0.635 and 0.462 and 0.310 and 0.125 and 0.299 | reduced expression | 0.137 and 0.086 | 0.212 and 0.341 and 0.688 and 0.490 | 0.310 and 0.732 and 0.719 | 1.13 |
| C[C@@H]1O[C@@H](O[C@H]2C[C@@H](O)[C@]3(CO)[C@H]4[C@H](O)C[C@]5(C)[C@@H](C6=CC(=O)OC6)CC[C@]5(O)[C@@H]4CC[C@]3(O)C2)[C@H](O)[C@H](O)[C@H]1O [Ouabain, ouabain, reference compound] | – | – | 73.6 and 91 and 73.5 and 72.9 and 82 and 66.9 | 76.21 | – | – | – | – | – | – | – | – | – | – | – | – | – | – | – |
| CO[C@H]1C[C@H](O[C@H]2CC[C@]3(C)[C@H]4CC[C@]5(C)[C@@H](C6=CC(=O)OC6)CC[C@]5(O)[C@@H]4CC[C@]3(O)C2)O[C@H](C)[C@H]1O[C@@H]1O[C@H](CO)[C@@H](O)[C@H](O)[C@H]1O [Periplocin, periplocin] | 0.8921 | – | 75.6 and 74 and 75.4 and 73.1 and 78 and 73 and 65.7 | 73.54 | – | – | – | – | – | – | – | – | – | – | – | – | – | – | – |
